Source: PMC6225228, “Design, Synthesis and Evaluation of N-pyrazinylbenzamides as Potential Antimycobacterial Agents” (Molecules : A Journal of Synthetic Chemistry and Natural …, 2018)
≈ marks a conversion by molar mass, not a printed value. Where two headings read alike, the source gives them in different places. Marks after values point to notes of the source that are not given here.

What was measured:
[1] = test system: Candida albicans ATCC 44859; experiment: Antifungal microdilution broth, CA; assay type: cell-based; conditions: Candida albicans, read-out: MIC CA
[2] = test system: Mycobacterium tuberculosis H37Rv CNCTC My 331/88 (ATCC 27294); experiment: Antimycobacterial microdilution MABA, M. tuberculosis; assay type: cell-based; conditions: for MIC: Mycobacterium tuberculosis
[3] = test system: M. kansasii CNCTC My 235/80 (ATCC 12478); experiment: Antimycobacterial microdilution MABA, M. kansasii; assay type: cell-based, Mycobacterium kansasii; conditions: for MIC: Mycobacterium kansasii
[4] = test system: Staphylococcus epidermidis H 6966/08; experiment: Antibacterial microdilution broth, SE; assay type: cell-based; conditions: read-out: MIC SE
Trichosporon asahii 1188 = experiment: Antifungal microdilution broth, TA; assay type: cell-based; conditions: read-out: MIC TA
Candida glabrata 20/I = experiment: Antifungal microdilution broth, CG; assay type: cell-based; conditions: Nakaseomyces glabratus, 20/I, read-out: MIC CG
[5] = test system: Mycobacterium smegmatis CCM 4622 (ATCC 607); experiment: Antimycobacterial microdilution, M. smegmatis; assay type: cell-based; conditions: Mycolicibacterium smegmatis, read-out: M. smeg. ATCC 607 MIC
[6] = test system: Lichtheimia corymbifera 272; experiment: Antifungal microdilution broth, LC; assay type: cell-based; conditions: read-out: MIC LC
[7] = test system: Enterococcus sp. J 14365/08; experiment: Antibacterial microdilution broth, EF; assay type: cell-based; conditions: Enterococcus, read-out: MIC EF
[8] = test system: Pseudomonas aeruginosa CCM 1961; experiment: Antibacterial microdilution broth, PA; assay type: cell-based; conditions: Pseudomonas aeruginosa, read-out: MIC PA
[9] = test system: Trichophyton interdigitale 445; experiment: Antifungal microdilution broth, TI; assay type: cell-based; conditions: read-out: MIC TI
[10] = test system: Staphylococcus aureus H 5996/08 methicillin resistant; experiment: microbe, parasite or virus in culture; assay type: cell-based; conditions: for MIC: Staphylococcus aureus, MRSA, read-out: MIC MRSA
[11] = test system: Staphylococcus aureus CCM 4516/08; experiment: Antibacterial microdilution broth, SA; assay type: cell-based
[12] = test system: M. avium ssp. avium CNCTC My 80/72 (ATCC 15769); experiment: Antimycobacterial microdilution MABA, M. avium; assay type: cell-based, Mycobacterium avium; conditions: for MIC: Mycobacterium avium
Candida krusei E28 = experiment: Antifungal microdilution broth, CK; assay type: cell-based; conditions: Pichia kudriavzevii, read-out: MIC CK
Candida tropicalis 156 = experiment: Antifungal microdilution broth, CT; assay type: cell-based; conditions: read-out: MIC CT
[13] = test system: Aspergillus fumigatus 231; experiment: Antifungal microdilution broth, AF; assay type: cell-based; conditions: read-out: MIC AF
[14] = test system: Escherichia coli CCM 4517; experiment: Antibacterial microdilution broth, EC; assay type: cell-based; conditions: Escherichia coli, read-out: MIC EC
[15] = Middlebrook 7H9 with OADC growth supplement, pH = 6.6, MABA
[16] = read-out: Mtb H37Rv ATCC 27294 MIC, Middlebrook 7H9 with OADC growth supplement, pH = 6.6, MABA
[17] = ATCC12478, pH 6.6, read-out: M. kans. ATCC 12478 MIC, Middlebrook 7H9 with OADC, pH 6.6, MABA
[18] = Staphylococcus epidermidis, H6966/08, 24 h
[19] = Staphylococcus epidermidis, H6966/08, 48 h
[20] = Trichosporon asahii, 1188, 24 h
[21] = Trichosporon asahii, 1188, 48 h
[22] = Lichtheimia corymbifera, 272, 24 h
[23] = Lichtheimia corymbifera, 272, 48 h
[24] = Trichophyton interdigitale, 445, 72 h
[25] = Trichophyton interdigitale, 445, 120 h
[26] = Staphylococcus aureus, CCM4516, 24 h, read-out: MIC SA, 24 h
[27] = Staphylococcus aureus, CCM4516, 48 h, read-out: MIC SA, 48 h
[28] = ATCC15769, pH 6.6, read-out: M. avium ATCC 15769 MIC
[29] = Aspergillus fumigatus, 231, 24 h
[30] = Aspergillus fumigatus, 231, 48 h
[31] = Middlebrook 7H9 with OADC growth supplement, pH = 6.6, MABA, read-out: Mtb H37Rv ATCC 27294 MIC
[32] = Middlebrook 7H9 with OADC, pH 6.6, MABA
[33] = ATCC12478, Middlebrook 7H9 with OADC, pH 6.6, MABA, read-out: M. kans. ATCC 12478 MIC
[34] = Middlebrook 7H9 with OADC, resazurin
[35] = ATCC15769, Middlebrook 7H9 with OADC, pH 6.6, MABA, read-out: M. avium ATCC 15769 MIC

Structure (SMILES): O=C(Nc1cnc(Cl)cn1)c1ccccc1Cl [Compound 2j]
- MIC ([1]; ATCC44859, 24 h): > 500 µM
- MIC ([1]; ATCC44859, 48 h): > 500 µM
- Mtb H37Rv ATCC 27294 MIC [2, 15]: >100 µg/mL
- MIC [2, 16]: > 100 µg/mL
- MIC [3, 17]: > 100 µg/mL
- MIC ([4]; 24 h): >500 µM
- MIC ([4]; 48 h): >500 µM
- MIC [4, 18]: > 500 µM
- MIC [4, 19]: > 500 µM
- MIC (Trichosporon asahii 1188; [20]): > 500 µM
- MIC (Trichosporon asahii 1188; [21]): > 500 µM
- MIC (Candida glabrata 20/I; 24 h): > 500 µM
- MIC (Candida glabrata 20/I; 48 h): > 500 µM
- MIC [5]: ≥ 500 µg/mL
- MIC [6, 22]: > 500 µM
- MIC [6, 23]: > 500 µM
- MIC ([7]; SP.J14365/08, 24 h): > 500 µM
- MIC ([7]; SP.J14365/08, 48 h): > 500 µM
- MIC ([8]; CCM1961, 72 h): > 500 µM
- MIC ([8]; CCM1961, 120 h): > 500 µM
- MIC [9, 24]: > 500 µM
- MIC [9, 25]: > 500 µM
- MIC MRSA ([10]; 24 h): >500 µM
- MIC MRSA ([10]; 48 h): >500 µM
- MIC ([10]; 24 h): > 500 µM
- MIC ([10]; 48 h): > 500 µM
- MIC ([11]; 24 h, read-out: MIC SA): 62.50 µM (≈ 16.8 µg/mL)
- MIC ([11]; 48 h, read-out: MIC SA): 62.50 µM (≈ 16.8 µg/mL)
- MIC [11, 26]: 62.5 µM (≈ 16.8 µg/mL)
- MIC [11, 27]: 62.5 µM (≈ 16.8 µg/mL)
- MIC [12, 28]: > 100 µg/mL
- MIC (Candida krusei E28; E28, 24 h): > 500 µM
- MIC (Candida krusei E28; E28, 48 h): > 500 µM
- MIC (Candida tropicalis 156; Candida tropicalis, 156, 24 h): > 500 µM
- MIC (Candida tropicalis 156; Candida tropicalis, 156, 48 h): > 500 µM
- MIC [13, 29]: > 500 µM
- MIC [13, 30]: > 500 µM
- MIC ([14]; CCM4517, 24 h): > 500 µM
- MIC ([14]; CCM4517, 48 h): > 500 µM

Structure (SMILES): O=C(Nc1cnc(Cl)cn1)c1cccc(C(F)(F)F)c1 [Compound 2n]
- MIC [2, 31]: 25 µg/mL (≈ 82.9 µM)
- M. kans. ATCC 12478 MIC [3, 32]: >100 µg/mL
- MIC [3, 33]: > 100 µg/mL
- MIC [5, 34]: ≥ 500 µg/mL
- M. avium ATCC 15769 MIC [12, 32]: >100 µg/mL
- MIC [12, 35]: > 100 µg/mL
- melting point: 155.4 to 156.4 °C

Structure (SMILES): O=C(Nc1cncc(Cl)n1)c1ccccc1 [Compound 3a]
- Mtb H37Rv ATCC 27294 MIC [2, 15]: >100 µg/mL
- MIC [2, 31]: > 100 µg/mL
- MIC [3, 33]: > 100 µg/mL
- MIC [5, 34]: ≥ 500 µg/mL
- MIC [12, 35]: > 100 µg/mL
- melting point: 152.8 to 153.6 °C

Structure (SMILES): COc1cccc(C(=O)Nc2cncc(Cl)n2)c1 [Compound 3f]
- Mtb H37Rv ATCC 27294 MIC [2, 15]: 50 µg/mL
- MIC [2, 31]: 50 µg/mL (≈ 190 µM)
- M. kans. ATCC 12478 MIC [3, 32]: 100 ^c µg/mL
- MIC [3, 33]: 100 µg/mL (≈ 379 µM)
- MIC [5, 34]: ≥ 500 µg/mL
- M. avium ATCC 15769 MIC [12, 32]: 100 ^c µg/mL
- MIC [12, 35]: 100 µg/mL (≈ 379 µM)
- melting point: 131.6 to 132.7 °C

Structure (SMILES): O=C(Nc1cncc(Cl)n1)c1ccccc1Cl [Compound 3j]
- MIC ([1]; ATCC44859, 24 h): > 500 µM
- MIC ([1]; ATCC44859, 48 h): > 500 µM
- Mtb H37Rv ATCC 27294 MIC [2, 15]: >100 µg/mL
- MIC [2, 16]: > 100 µg/mL
- MIC [3, 17]: > 100 µg/mL
- MIC [4, 18]: > 500 µM
- MIC [4, 19]: > 500 µM
- MIC (Trichosporon asahii 1188; [20]): > 500 µM
- MIC (Trichosporon asahii 1188; [21]): > 500 µM
- MIC (Candida glabrata 20/I; 24 h): > 500 µM
- MIC (Candida glabrata 20/I; 48 h): > 500 µM
- MIC [5]: ≥ 500 µg/mL
- MIC [6, 22]: > 500 µM
- MIC [6, 23]: > 500 µM
- MIC ([7]; SP.J14365/08, 24 h): > 500 µM
- MIC ([7]; SP.J14365/08, 48 h): > 500 µM
- MIC ([8]; CCM1961, 72 h): > 500 µM
- MIC ([8]; CCM1961, 120 h): > 500 µM
- MIC [9, 24]: > 500 µM
- MIC [9, 25]: > 500 µM
- MIC ([10]; 24 h): > 500 µM
- MIC ([10]; 48 h): > 500 µM
- MIC [11, 26]: > 500 µM
- MIC [11, 27]: > 500 µM
- MIC [12, 28]: > 100 µg/mL
- MIC (Candida krusei E28; E28, 24 h): > 500 µM
- MIC (Candida krusei E28; E28, 48 h): > 500 µM
- MIC (Candida tropicalis 156; Candida tropicalis, 156, 24 h): > 500 µM
- MIC (Candida tropicalis 156; Candida tropicalis, 156, 48 h): > 500 µM
- MIC [13, 29]: > 500 µM
- MIC [13, 30]: > 500 µM
- MIC ([14]; CCM4517, 24 h): > 500 µM
- MIC ([14]; CCM4517, 48 h): > 500 µM
